For this data set the following is noted: Liquid.

Numbers after ± are expanded uncertainties.

The text below walks through data of the NIST ThermoML archive (doi:10.1021/je050317k).

Usually vapor or sublimation pressure stands for the equilibrium pressure above the liquid or solid.

With `CC(Cl)CCl` (stereo unspecified) [1,2-dichloropropane], the “vapor or sublimation pressure” value reads like this: (333.15 K) 30.14 ± 0.27 kPa; (353.15 K) 61.07 ± 0.44 kPa.

`OCCCCO` [1,4-butanediol]: the “vapor or sublimation pressure” value (383.15 K) came to 0.664 ± 0.064 kPa.

Consider `C=CCCC=C` [1,5-hexadiene], for which the “vapor or sublimation pressure” value (333.15 K) came to 103.15 ± 1.3 kPa and the “vapor or sublimation pressure” value (373.1 K) turned out to be 316.61 ± 2.2 kPa.

`CC(=O)OC(C)C` [1-methylethyl ethanoate]: the “vapor or sublimation pressure” value was 37.73 ± 0.44 kPa (333.15 K), 249.59 ± 1.8 kPa (393.15 K) and 939.9 ± 6 kPa (453.15 K).

Turning to `CC(C)C` [2-methylpropane], the “vapor or sublimation pressure” value is, setting by setting: (298.15 K) 352.39 ± 2.8 kPa; (348.15 K) 1212.7 ± 7.9 kPa.

As to `C=CCCl` [3-chloro-1-propene], the “vapor or sublimation pressure” value runs as follows: (333.15 K) 164.65 ± 1.6 kPa; (373.1 K) 489.25 ± 3.4 kPa.

For the molecule `Cl/C=C\CCl` [(Z)-1,3-dichloro-1-propene], the “vapor or sublimation pressure” value amounted to 22.61 ± 0.25 kPa (333.15 K) and 47.29 ± 0.42 kPa (353.15 K).

Take `CC#N` [acetonitrile]: the “vapor or sublimation pressure” value is 49.16 ± 0.53 kPa (333.15 K), 297.37 ± 2.1 kPa (393.15 K) and 1096.9 ± 7 kPa (453.15 K).

Turning to `CC(=O)c1ccccc1` [acetophenone], the “vapor or sublimation pressure” value (373.1 K) amounted to 3.573 ± 0.091 kPa and the “vapor or sublimation pressure” value (433.15 K) was determined as 32.02 ± 0.24 kPa.

With `C=CCl` [chloroethene], the “vapor or sublimation pressure” value (273.1 K) is 172 ± 1.8 kPa and the “vapor or sublimation pressure” value (313.15 K) worked out at 601.5 ± 4 kPa.

On to `C1CO1` [oxirane], for which the “vapor or sublimation pressure” value (298.15 K) was found to be 174.71 ± 1.6 kPa and the “vapor or sublimation pressure” value (348.15 K) was 766.7 ± 5 kPa.

As to `Oc1ccccc1` [phenol], the “vapor or sublimation pressure” value runs as follows: (373.1 K) 5.506 ± 0.12 kPa; (433.15 K) 53.23 ± 0.37 kPa.

With `O=C1CCCO1` [γ-butyrolactone], the “vapor or sublimation pressure” value (383.15 K) was 5.15 ± 0.087 kPa.
